This note sets out measurements from ChEMBL document CHEMBL1127989, “Structure-activity studies of synthetic FKBP ligands as peptidyl-prolyl isomerase inhibitors” (Bioorg Med Chem Lett, 1994).

The nature of one test: Apparent inhibition constant against peptidyl prolyl isomerase; range = 0.002-0.006. Particulars: read-out: Ki app.
Take `CCC(C)(C)C(=O)C(=O)N1CCCC[C@@H]1C(=O)OC(CCc1ccc(OC)c(OC)c1)c1ccccc1` (stereo partly specified): the Ki was found to be 2 nM.

The nature of another test: Inhibition constant against peptidyl prolyl isomerase. Particulars: read-out: Ki app.
On to `C/C(=C\c1ccccc1)COC(=O)C1CCCCN1C(=O)C(=O)C1CCCCC1` (stereo unspecified), for which the Ki was determined as 300 nM. Turning to `CCCC(=O)C1CCCCN1C(=O)C(=O)C(C)(C)CC` (stereo unspecified), the Ki was 30000 nM. Same read-out and setting: for `C=CCN(CC(=O)OCC)C(=O)C(=O)C1(OC)CCCCC1` the value was 260000 nM; for `CCOC(=O)CN(C)C(=O)C(=O)C1(OC)CCCCC1`, 23000 nM; for `CCOC(=O)[C@@H]1CCCN1C(=O)C(=O)C1(OC)CCCCC1`, 8000 nM. For `CCOC(=O)C1CCCCN1C(=O)C(C)=O` (stereo unspecified), the Ki was 170000 nM. In the case of `CCC(C)(C)C(=O)C(=O)N1CCCCC1C(=O)OCCCC1CCCCC1` (stereo unspecified), the Ki worked out at 186 nM. Consider `CCC(C)(C)C(=O)C(=O)N1CCCCC1C(=O)OCCc1ccccc1` (stereo unspecified), for which the Ki is 340 nM. `O=C(C(=O)N1CCCCC1C(=O)NCCCc1ccccc1)C1CCCCC1` (stereo unspecified): the Ki worked out at 1000 nM. As for `CCC(C)(C)C(=O)C(=O)N1CCCCC1C(=O)OCCCc1c[nH]c2ccccc12` (stereo unspecified), the Ki was 23 nM. Same read-out and setting: for `CCOC(=O)C1CCCCN1C(=O)C(=O)C(C)(C)C` (stereo unspecified) the value was 2000 nM; for `CCOC(=O)C1CCCCN1C(=O)C(=O)C1(O)CCCCC1` (stereo unspecified), 1600 nM.

For `CCC(C)(C)C(=O)C(=O)N1CCCC[C@@H]1C(=O)OC(CCc1ccc2c(c1)OCO2)c1ccccc1` (stereo partly specified), the Ki amounted to 9 nM. Consider `CCC(C)(C)C(=O)C(=O)N1CCCCC1C(=O)OCCCc1cccnc1` (stereo unspecified), for which the Ki came to 165 nM. Turning to `CCC(C)(C)C(=O)C(=O)N1CCCCC1C(=O)OCCCc1ccccc1OC` (stereo unspecified), the Ki was found to be 60 nM. Turning to `CCOC(=O)C1CCCCN1C(=O)C(=O)Cc1ccccc1` (stereo unspecified), the Ki was 9000 nM. As for `O=C(C(=O)N1CCCCC1C(=O)OCc1ccccc1)C1CCCCC1` (stereo unspecified), the Ki stood at 400 nM. In the case of `CCC(C)(C)C(=O)C(=O)N1CCCCC1C(=O)OCc1cccc2ccccc12` (stereo unspecified), the Ki was 250 nM.

`CCOC(=O)C1CCCCN1C(=S)C(=O)CC(C)C` (stereo unspecified): the Ki worked out at 4300 nM. Same read-out and setting: for `CCC(C)(C)C(=O)C(=O)N1CCCC[C@@H]1C(=O)OC(CCc1cc(OC)c(OC)c(OC)c1)c1ccccc1` (stereo partly specified) the value was 9 nM.

In the case of `C=CC(C)(C)C(CCc1ccccc1)OC(=O)[C@H]1CCCCN1C(=O)C(=O)C(C)(C)CC` (stereo partly specified), the Ki was found to be 250 nM.

In the case of `CCC(C)(C)C(=O)C(=O)N1CCCCC1C(=O)OCCc1c[nH]c2ccccc12` (stereo unspecified), the Ki amounted to 330 nM.

Regarding `CCOC(=O)C1CCCN(C(=O)C(=O)C2(OC)CCCCO2)C1` (stereo unspecified), the Ki turned out to be 180000 nM.

With `CCC(C)(C)C(=O)C(=O)N1CCCCC1C(=O)OCCCCc1ccccc1` (stereo unspecified), the Ki was found to be 100 nM. For the compound `COC1(C(=O)C(=O)N2CCCCC2)CCCCO1` (stereo unspecified), the Ki was found to be 160000 nM.

Take `CCOC(=O)C1CCCCN1C(=O)C(=O)CC` (stereo unspecified): the Ki turned out to be 50000 nM. Still for that read-out and setting: in the case of `CCC(C)(C)C(=O)C(=O)N1CCCCC1C(=O)OCC(C)(C)C` (stereo unspecified) it was 410 nM. With `CC(C)(CCC1CCCCC1)OC(=O)C1CCCCN1C(=O)C(=O)C1CCCCC1` (stereo unspecified), the Ki amounted to 200 nM.

For `CCC(C)(C)C(=O)C(=O)N1CCCCC1C(=O)OC/C=C/c1ccc(OC)c(OC)c1` (stereo unspecified), the Ki came to 35 nM. As to `CCOC(=O)C1CCCCN1C(=O)C(=O)C1=CCCCO1` (stereo unspecified), the Ki came out at 20000 nM. The same measure, in the same setting: for `COc1cc(CCCOC(=O)[C@@H]2CCCCN2S(=O)(=O)Cc2ccccc2)cc(OC)c1OC` the value was 230 nM; for `CCOC(=O)C1CCCCN1C(=O)C(=O)c1ccccc1` (stereo unspecified), 8000 nM.

As to `CCC(C)(C)C(O)C(=O)N1CCCC[C@H]1C(=O)OCCCc1ccccc1` (stereo partly specified), the Ki turned out to be 2300 nM.

For `CCC(C)(C)C(=O)C(=O)N1CCCC[C@@H]1C(=O)OC(CCc1ccccc1)C1CCCCC1` (stereo partly specified), the Ki is 7 nM.

With `CCOC(=O)C1CCCCN1C(=O)C(=O)N1CCCCC1` (stereo unspecified), the Ki worked out at 33000 nM. Consider `CCC(C)(C)C(=O)C(=O)N1CCCC[C@@H]1C(=O)OC(CCC1CCCCC1)c1ccccc1` (stereo partly specified), for which the Ki turned out to be 10 nM. On the same count and under the same terms, for `CCC(C)(C)C(=O)C(=O)N1CCCCC1C(=O)OC(CCc1ccccc1)Cc1ccccc1` (stereo unspecified) the value was 55 nM; for `CCOC(=O)C1CCCCN1C(=O)C(=O)C(C)(C)COC(C)=O` (stereo unspecified), 1000 nM. Consider `CCC(C)(C)C(=O)C(=O)N1CCCCC1C(=O)OCCCc1ccc(OC)c(OC)c1` (stereo unspecified), for which the Ki was determined as 20 nM. On to `CCC(C)(C)C(=O)C(=O)N1CCCCC1C(=O)OCCCc1cc(OC)c(OC)c(OC)c1` (stereo unspecified), for which the Ki worked out at 12 nM.

Regarding `CCC(C)(C)C(=O)C(=O)N1CCCCC1C(=O)OCCC(c1ccccc1)c1ccccc1` (stereo unspecified), the Ki worked out at 27 nM. As for `CCOC(=O)C1CCCCN1C(=O)C(=O)C(C)C` (stereo unspecified), the Ki was determined as 6000 nM. On the same count and under the same terms, in the case of `CCOC(=O)C1CCCCN1NC(=O)C1CCCCC1` (stereo unspecified) it was 730000 nM. Still for that read-out and setting: for `CCOC(=O)[C@H]1CCCCN1C(=O)C(=O)C1(OC)CCCCC1` the value was 22000 nM.

Turning to `CCOC(=O)[C@H]1CCCN1C(=O)C(=O)C1(OC)CCCCC1`, the Ki came to 600000 nM. Consider `CCC(C)(C)C(=O)C(=O)N1CCCC[C@H]1C(=O)OC(CCc1ccccc1)C1CCCCC1` (stereo partly specified), for which the Ki came out at 300 nM. Still for that read-out and setting: for `CCOC(=O)C1CCCCN1C(=O)C(=O)CC(C)C` (stereo unspecified) the value was 2000 nM; for `CCC(C)(C)C(=O)C(=O)N1CCCCC1C(=O)OCCCc1ccc(OC)cc1` (stereo unspecified), 70 nM. For `CCOC(=O)C1CCCCN1C(=O)C(=O)C1(OC)CCCCC1` (stereo unspecified), the Ki amounted to 1000 nM. For the compound `O=C(C(=O)N1CCCC[C@H]1C(=O)OC(CCC1CCCCC1)c1ccccc1)C1CCCCC1` (stereo partly specified), the Ki was 16000 nM. For `COc1cc(CC[C@@H](OC(=O)[C@@H]2CCCCN2C(=O)CC(C)(C)C)c2ccccc2)cc(OC)c1OC`, the Ki was found to be 200 nM.

For `CCOC(=O)C1CCCCN1C(=O)C(=O)C1CCCCC1` (stereo unspecified), the Ki is 2000 nM. As to `CCOC(=O)C1CCCCN1C(=O)C(=O)C1(OC)CCCCO1` (stereo unspecified), the Ki was determined as 4000 nM. On the same count and under the same terms, for `O=C(O[C@H](CCc1ccccc1)c1ccccc1)[C@@H]1CCCCN1S(=O)(=O)Cc1ccccc1` the value was 160 nM. In the case of `CCC(C)(C)C(=O)C(=O)N1CCCCC1C(=O)OCc1ccc2ccccc2c1` (stereo unspecified), the Ki came to 200 nM. On to `CCC(C)(C)C(=O)C(=O)N1CCCCC1C(=O)OCCCc1ccc(OCc2ccccc2)cc1` (stereo unspecified), for which the Ki was 60 nM. Consider `CCC(C)(C)C(=O)C(=O)N1CCCCC1C(=O)OCCCc1ccc(O)cc1` (stereo unspecified), for which the Ki came out at 95 nM. Take `CCC(C)(C)C(=O)C(=O)N1CCCCC1C(=O)OCCCc1ccccc1` (stereo unspecified): the Ki stood at 110 nM.

Take `CCOC(=O)C1CCCCN1C(=O)C(=O)C(C)(C)CC` (stereo unspecified): the Ki stood at 660 nM. In the case of `O=CC1CCCCN1C(=O)C(=O)C1CCCCC1` (stereo in doubt; 35), the Ki came to 250 nM. On the same count and under the same terms, in the case of `O=CC1CCCCN1C(=O)C(=O)C1CCCCC1` (stereo in doubt; 44) it was 200 nM. As for `O=CC1CCCCN1C(=O)C(=O)C1CCCCC1` (stereo in doubt; 59), the Ki turned out to be 20 nM. As to `CO[C@H]1C[C@@H]2CC[C@@H](C)[C@@](O)(O2)C(=O)C(=O)N2CCCC[C@H]2C(=O)O[C@H]([C@H](C)C[C@@H]2CC[C@@H](O)[C@H](OC)C2)CC(=O)[C@H](C)/C=C(\C)[C@@H](O)[C@@H](OC)C(=O)[C@H](C)C[C@H](C)/C=C/C=C/C=C/1C` [SIROLIMUS], the Ki amounted to 1000 nM.

A short description of another test: Apparent inhibition constant against peptidyl prolyl isomerase; range=0.004-0.010. Particulars: read-out: Ki app.
Regarding `CCC(C)(C)C(=O)C(=O)N1CCCC[C@@H]1C(=O)OC(CCc1ccccc1)c1ccc2ccccc2c1` (stereo partly specified), the Ki is 4 nM.

A short description of another test: Apparent inhibition constant against peptidyl prolyl isomerase (Ki app).
Details: not given
For the compound `O=C(C(=O)N1CCCCC1C(=O)N(CCCc1ccccc1)Cc1ccccc1)C1CCCCC1` (stereo unspecified), the Ki was found to be 20000 nM. Regarding `O=C(C(=O)N1CCCC[C@@H]1C(=O)NC(CO)Cc1ccccc1)C1CCCCC1` (stereo partly specified), the Ki was found to be 60000 nM.

Take `CCOC(=O)C(CCc1ccccc1)NC(=O)[C@H]1CCCCN1C(=O)C(=O)C1CCCCC1` (stereo partly specified): the Ki was 1900 nM.

Regarding `O=C(C(=O)N1CCCCC1C(=O)NCCc1ccccc1)C1CCCCC1` (stereo unspecified), the Ki was 3000 nM.

The test is the same for the next values; noted with them: read-out: Ki app.
For the compound `CCOC(=O)C1CCCCN1C(=O)C(=O)C1(O)CCCCO1` (stereo unspecified), the Ki worked out at 7000 nM.

Another test can be described thus: Apparent inhibition constant against peptidyl prolyl isomerase; range=0.3-0.6. Particulars: read-out: Ki app.
`CCC(C)(C)C(=O)C(=O)N1CCCC[C@H]1C(=O)OC(CCc1ccccc1)c1ccccc1` (stereo partly specified): the Ki worked out at 300 nM.
